The values below come from patent US20050096350A1, “Halo substituted benzo[b]thiophenes as therapeutic agents” (priority 2003, published 2005).

In the assay the target is T1, PI3Kγ (purified recombinant p101/p110γ protein) (Homo sapiens, UniProt P48736).
T1 construct: HA; made in house; host or cells: Spodoptera frugiperda Sf9 cells (baculovirus coinfection)
The experiment in a line: PI3Kγ in vitro kinase assay. It is filed as biochemical. The conditions noted are these: 20 μM ATP, 25 μM PIP2, G protein β1/γ2 subunits. As to the method: Spodtera frugiperda cells, grown in ESF921 media, were coinfected with baculovirus expressing a glu-tagged p101 and baculovirus expressing an HA-tagged […], at a 3:1 ratio of p101 baculovirus to p110γ baculovirus. Sf9 cells were grown to 1×10^7 total cells/mL in 10 L bioreactors and harvested 48-72 hours post infection. Samples of infected cells were then tested for expression of p101/p110γ PI3 kinase by immunoprecipitation and Western Blot analysis methods (see below).
To purify PI3Kγ, 4 volumes of room temperature hypotonic lysis buffer (1 mM MgCl2, 1 mM DTT, 5 mM EGTA, 1 mM Pefabloc, 0.5 μM aprotinin, 5 μM leupeptin, 2 μM pepstatin, 5 μM E64, pH 8) per gram of cell paste, was poured onto frozen cell pellets with stirring, then lysed in a nitrogen “bomb” at 400 psi (599HC T316, Parr Instrument Co, Moline, Ill.). NaCl was added to 150 mM, and sodium cholate was added to 1% and mixed for another 45 minutes. The lysates were clarified by centrifugation for 25 minutes at 14,000 rpm. The lysates were then loaded over anti-glu-linked Protein-G Sepaharose beads (Covance Research Products, Richmond, Calif.) using 20 mL resin/50 g cell paste. The column was washed with 15 volumes of wash buffer (1 mM DTT, 0.2 mM EGTA, 1 mM Pefabloc, 0.5 μM aprotinin, 5 μM leupeptin, 2 μM pepstatin, 5 μM E64, 150 mM NaCl, 1% sodium cholate, pH 8). PI3Kγ was eluted with 6 column volumes of wash buffer that contain 100 μg/mL of a peptide that competes for binding of the glu tag. The column fractions with the eluted protein (determined by taking OD280 readings) were collected and dialyzed in 0.2 mM EGTA, 1 mM DTT, 1 mM Pefabloc, 5 μM leupeptin, 0.5% sodium cholate, 150 mM NaCl, and 50% glycerol, pH 8. The fractions were stored at −80° C. until further use.
Spodtera frugiperda cells were coinfected with baculovirus expressing a glu-tagged G protein β1 and baculovirus expressing a G protein β2, at a 1:1 ratio of glu-tagged G protein β1 baculovirus to G protein β2 baculovirus. Sf9 cells are grown in 10 L bioreactors and harvested 48-72 hours post infection. Samples of infected cells were tested for G protein β1/β2 expression by Western Blot analysis, as described below. Cell lysates were homogenized and loaded onto a column of glu-tagged beads as in Biological Example 1 and competed off the column with a glu peptide and processed as described in Biological Example 1.
The inhibitory properties of the compounds in Table 1 were assayed in an in vitro PI3K assay. In a 96-well polypropylene plate, each well was spotted with 2 μL of 50 times the desired final concentration of compound in DMSO. Purified recombinant p101/p110γ protein (0.03 μg; ˜2.7 nM) and G protein β1/γ2 subunits (0.09 μg; ˜57.7 nM) for each reaction was combined in the assay buffer (30 mM HEPES, 100 mM NaCl, 1 mM EGTA, and 1 mM DTT). ATP and [γ-^32P-ATP] (0.09 μCi) were added to this mixture so that the final ATP concentration in the reaction was 20 μM. Lipid micelles were formed by sonicating phosphatidylinositol-4,5-diphosphate (PIP2), phosphatidylethanolamine (PE), and Na-cholate in the assay buffer for 10 minutes, adding MgCl2 and incubating on ice for 20 minutes, for final concentrations of 25 μM PIP2, 300 μM PE, 0.02% Na-cholate, and 10 mM MgCl2 in the reaction. The reactions were started by adding equal volumes lipid and enzyme mixture in a total volume of 50 μL, allowed to run for 20 minutes at room temperature, and stopped with 100 μL 75 mM H3PO4. The lipid product was transferred to a glass fiber filter plate and washed with 75 mM H3PO4 several times. The presence of radioactive lipid product (PIP3) was measured by adding Wallac Optiphase mix to each well and counting in a Wallac 1450 Trilux plate reader (PerkinElmer Life Sciences Inc., Boston, Mass. 02118). The IC50 for each compound tested is reported in μM in the Tables above.

Structures are written as SMILES.

T1 sequence (P48736 whole entry, species assumed): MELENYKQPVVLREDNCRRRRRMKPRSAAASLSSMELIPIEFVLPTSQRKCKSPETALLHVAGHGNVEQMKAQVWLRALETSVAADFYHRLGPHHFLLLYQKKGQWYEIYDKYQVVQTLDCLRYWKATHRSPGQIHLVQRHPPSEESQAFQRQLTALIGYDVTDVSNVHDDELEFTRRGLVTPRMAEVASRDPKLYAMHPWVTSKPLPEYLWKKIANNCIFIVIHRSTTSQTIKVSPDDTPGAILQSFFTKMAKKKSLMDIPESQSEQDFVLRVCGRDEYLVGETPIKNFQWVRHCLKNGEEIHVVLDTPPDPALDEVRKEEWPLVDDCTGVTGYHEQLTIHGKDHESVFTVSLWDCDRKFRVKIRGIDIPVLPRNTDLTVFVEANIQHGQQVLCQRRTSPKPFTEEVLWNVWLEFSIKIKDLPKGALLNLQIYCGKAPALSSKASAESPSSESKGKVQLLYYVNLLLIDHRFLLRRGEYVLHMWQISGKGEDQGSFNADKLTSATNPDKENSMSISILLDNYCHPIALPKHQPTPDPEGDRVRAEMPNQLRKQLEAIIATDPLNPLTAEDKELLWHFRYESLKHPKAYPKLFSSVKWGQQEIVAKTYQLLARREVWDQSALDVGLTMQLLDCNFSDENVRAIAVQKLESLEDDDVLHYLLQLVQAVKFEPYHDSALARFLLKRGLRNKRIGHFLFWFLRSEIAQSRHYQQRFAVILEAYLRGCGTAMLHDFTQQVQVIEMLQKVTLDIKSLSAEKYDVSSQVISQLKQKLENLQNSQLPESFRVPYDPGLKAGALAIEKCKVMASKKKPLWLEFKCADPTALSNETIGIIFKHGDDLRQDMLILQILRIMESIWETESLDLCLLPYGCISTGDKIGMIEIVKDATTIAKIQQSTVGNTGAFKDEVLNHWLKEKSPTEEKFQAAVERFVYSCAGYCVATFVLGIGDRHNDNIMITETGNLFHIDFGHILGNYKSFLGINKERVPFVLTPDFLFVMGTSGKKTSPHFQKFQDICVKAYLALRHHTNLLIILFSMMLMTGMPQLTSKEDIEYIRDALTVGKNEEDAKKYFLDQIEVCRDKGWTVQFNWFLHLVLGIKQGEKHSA
T1 sequence (Q8WYR1 whole entry partner, species assumed): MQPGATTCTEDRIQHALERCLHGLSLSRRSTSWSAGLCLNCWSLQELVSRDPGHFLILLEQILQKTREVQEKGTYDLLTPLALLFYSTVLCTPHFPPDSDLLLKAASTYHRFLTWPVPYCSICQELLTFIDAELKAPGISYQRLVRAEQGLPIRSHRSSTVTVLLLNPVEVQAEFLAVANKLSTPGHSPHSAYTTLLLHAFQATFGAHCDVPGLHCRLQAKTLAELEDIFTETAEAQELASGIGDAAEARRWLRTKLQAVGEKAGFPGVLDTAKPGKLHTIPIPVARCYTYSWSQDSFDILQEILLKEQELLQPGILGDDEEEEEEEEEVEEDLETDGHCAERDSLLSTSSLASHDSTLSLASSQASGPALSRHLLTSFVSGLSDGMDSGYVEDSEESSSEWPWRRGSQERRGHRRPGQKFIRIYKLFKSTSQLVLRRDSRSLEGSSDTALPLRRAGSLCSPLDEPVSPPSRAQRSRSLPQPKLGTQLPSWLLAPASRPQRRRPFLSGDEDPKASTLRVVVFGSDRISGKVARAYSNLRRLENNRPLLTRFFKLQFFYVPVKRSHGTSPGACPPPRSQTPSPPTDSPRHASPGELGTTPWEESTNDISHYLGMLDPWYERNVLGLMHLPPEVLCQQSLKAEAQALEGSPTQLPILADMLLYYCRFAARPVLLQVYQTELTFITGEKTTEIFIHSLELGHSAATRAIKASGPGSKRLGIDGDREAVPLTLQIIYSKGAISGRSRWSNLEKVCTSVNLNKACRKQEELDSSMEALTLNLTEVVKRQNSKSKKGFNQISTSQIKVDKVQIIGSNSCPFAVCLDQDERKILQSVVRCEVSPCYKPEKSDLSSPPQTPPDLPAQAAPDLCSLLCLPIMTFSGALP

By IC50 is commonly meant the midpoint of a concentration-inhibition curve. Turning to `COc1ccc2sc(C(=O)Nc3nnn[nH]3)c(Sc3cccc(C(=O)O)c3)c2c1F` [Example 25, 3-[4-Fluoro-5-methoxy-2-(1H-tetrazol-5-ylcarbamoyl)-benzo[b]thiophen-3-ylsulfanyl]-benzoic acid], the IC50 is 2.39 µM.
On the same count and under the same terms, then `COC(=O)c1ccc(Sc2c(C(=O)Nc3nnn[nH]3)sc3ccc(OC)c(F)c23)cc1` [Example 26, 4-[4-Fluoro-5-methoxy-2-(1H-tetrazol-5-ylcarbamoyl)-benzo[b]thiophen-3-ylsulfanyl]-benzoic acid methyl ester], with 20 µM; and `COC(=O)Cc1ccc(Sc2c(C(=O)Nc3nnn[nH]3)sc3ccc(OC)c(F)c23)cc1` [Example 27, {4-[4-Fluoro-5-methoxy-2-(1H-tetrazol-5-ylcarbamoyl)-benzo[b]thiophen-3-ylsulfanyl]-phenyl}-acetic acid methyl ester], with 14.2 µM.
Same read-out and setting: for `COC(=O)CCc1ccc(Sc2c(C(=O)Nc3nnn[nH]3)sc3ccc(OC)c(F)c23)cc1` [Example 28, 3-{4-[4-Fluoro-5-methoxy-2-(1H-tetrazol-5-ylcarbamoyl)-benzo[b]thiophen-3-ylsulfanyl]-phenyl}-propionic acid methyl ester] the value was 14.9 µM; for `COc1ccc2sc(C(=O)Nc3nnn[nH]3)c(Sc3cccc(Cl)c3)c2c1F` [Example 31, 3-(3-Chloro-phenylsulfanyl)-4-fluoro-5-methoxy-benzo[b]thiophene-2-carboxylic acid (1H-tetrazol-5-yl)-amide], 5.87 µM.
In the case of `COc1cccc(Sc2c(C(=O)Nc3nnn[nH]3)sc3ccc(OC)c(F)c23)c1` [Example 32, 4-Fluoro-5-methoxy-3-(3-methoxy-phenylsulfanyl)-benzo[b]thiophene-2-carboxylic acid (1H-tetrazol-5-yl)-amide], the IC50 was 5.94 µM.
On to `COc1ccc(Sc2c(C(=O)Nc3nnn[nH]3)sc3ccc(OC)c(F)c23)cc1` [Example 33, 4-Fluoro-5-methoxy-3-(4-methoxy-phenylsulfanyl)-benzo[b]thiophene-2-carboxylic acid (1H-tetrazol-5-yl)-amide], for which the 50% inhibitory concentration (IC50) was determined as 19.4 µM.
Still for that read-out and setting: then `COc1ccc2sc(C(=O)Nc3nnn[nH]3)c(Sc3ccc(C(=O)O)cc3)c2c1F` [Example 34, 4-[4-Fluoro-5-methoxy-2-(1H-tetrazol-5-ylcarbamoyl)-benzo[b]thiophen-3-ylsulfanyl]-benzoic acid], with 5.95 µM; and `COc1ccc2sc(C(=O)Nc3nnn[nH]3)c(Sc3ccc(CCC(=O)O)cc3)c2c1F` [Example 36, 3-{4-[4-Fluoro-5-methoxy-2-(1H-tetrazol-5-ylcarbamoyl)-benzo[b]thiophen-3-ylsulfanyl]-phenyl}-propionic acid], with 7.18 µM; and `COc1ccc2sc(C(=O)Nc3nnn[nH]3)c(SC3CCCC3)c2c1F` [Example 38, 3-Cyclopentylsulfanyl-4-fluoro-5-methoxy-benzo[b]thiophene-2-carboxylic acid (1H-tetrazol-5-yl)-amide], with 0.19 µM.
With `COc1ccc2c(SC3CCCC3)c(C(=O)Nc3nnn[nH]3)sc2c1F` [Example 39, 3-Cyclopentylsulfanyl-7-fluoro-6-methoxy-benzo[b]thiophene-2-carboxylic acid (1H-tetrazol-5-yl)-amide], under “table b284”, the IC50 is 0.016 µM.
Turning to `COc1cc2c(SC3CCCC3)c(C(=O)Nc3nnn[nH]3)sc2cc1F` [Example 42, 3-Cyclopentylsulfanyl-6-fluoro-5-methoxy-benzo[b]thiophene-2-carboxylic acid (1H-tetrazol-5-yl)-amide], the IC50 (table b291) was 0.011 µM.
`COc1cc2c(Oc3ccc(C4CCCCC4)cc3)c(C(=O)Nc3nn[nH]n3)sc2cc1Br` [Example 43, 6-Bromo-3-(4-Cyclohexyl-phenoxy)-5-methoxy-benzo[b]thiophene-2-carboxylic acid (2H-tetrazol-5-yl)-amide]: the 50% inhibitory concentration (IC50) (table b298) is 0.38 µM.
The same measure, in the same setting: then `COc1cc2c(Oc3ccc(C4CCCCC4)cc3)c(C(=O)Nc3nn[nH]n3)sc2cc1Cl` [Example 44, 6-Chloro-3-(4-Cyclohexyl-phenoxy)-5-methoxy-benzo[b]thiophene-2-carboxylic acid (2H-tetrazol-5-yl)-amide], with 0.11 µM.
